# Reference: patent US6242432A, “Antithrombotic organic nitrates” (Nicox S.A., priority 1996, dated 2001)
# What was measured:
# [1] = test system: platelet aggregation induced by collagen; assay: Antiplatelet activity: inhibition of collagen-induced platelet aggregation in vivo; design: species or system male Wistar rats; conditions: rats, 10 mg/kg oral daily for 5 days; collagen 2 mg/kg i.v.; per-cent inhibition of the control group
# Description: (§1) The products from Examples 1 and 2 had been administered in vivo always as 2%-by-weight suspensions in carboxymethyl cellulose.
# (§2) The experimental groups were made up of 6 to 8 samples to allow appropriate statistical evaluation, which was carried out when needed.
# The ability of NO-ENA and NO-TIM to inhibit platelet aggregation was evaluated using an in vivo model as described by Pinon (J. Pharmacol. Methods 12,79,1989). 5 groups of male Wistar rats (200 to 250 g) received an oral daily dose of 10 mg/kg of respectively, NO-ENA, enalapril, NO-TIM, timolol or vehicle for 5 days. At an appropriate time on the forth day food (but not water) was withdrawn. 18 to 20 hours later the animals received the last treatment. One hour later the animals were anaesthetized with 10% urethane ([…] intraperitoneally) and the left jugular vein and right carotid artery were incannulated. Collagen (type 6, Sigma) was then administered intravenously at a dose of 2 mg/kg. Three minutes later two blood samples (A and B) were collected from the carotide artery using 2.5-ml plastic syringes in the following manner: sample A, 0.4 ml of blood in 1.6 ml of EDTA/formalin buffer (ETDA tetrasodium salt 24 mM, KH2 PO4 1.3 mM, Na2 PO4 13.4 mM), the samples were then transferred into 5-ml polystyrene test tubes and allowed to settle for 15 minutes at ambient temperature. After this time, the platelet aggregations in sample A were fixed in formalin, while those from sample B were treated with EDTA. Platelet count was then made in each sample using a conventional microscope. The count for sample B was the total number of platelets, while for sample A were considered only non-aggregated platelets. The results were expressed as per-cent aggregation, calculated as follows: {[1-(platelet count in sample A)/(platelet count in sample B)]×100}.
# [2] = test system: thrombosis induced by collagen plus adrenaline; assay: Antithrombotic activity: collagen plus adrenaline induced thrombosis/death; format: in vivo, male Charles River rats of the Swiss strain; conditions: 10 mg/kg oral daily for 5 days; collagen plus adrenaline 100 μM into caudal vein
# Description: as §1, §2
# 5 groups of male Charles River rats of the Swiss strain, 15 to 20 g, received a daily oral dose of 10 mg/kg of, respectively, NO-ENA, enalapril, NO-TIM, timolol or vehicle for 5 days. At an appropriate time on the fourth day food (but not water) was withdrawn. 18 to 20 hours later the animals received the last treatment. One hour later the animals were injected into the caudal vein with 0.1 ml of a collagen (type 6, Sigma) mixture plus adrenaline hydrochloride (100 μM) diluted in a solution of 0.154 M sodium chloride. As previously explained (Cirino G. et al., Thrombosis Reasearch 79, 73, 1995), injection of this mixture caused death within 3 minutes in 90% of the control animals.
# [3] = test system: arterial hypertension induced by L-NAME; assay: Antihypertensive activity: L-NAME induced arterial hypertension; format: in vivo, male Wistar rats; conditions: rats, 10 mg/kg intravenous daily for 5 days, 1 h after treatment, vehicle 170 ± 7, * P < 0.05 versus the other two groups
# Description: as §1, §2
# The ability of NO-ENA to inhibit hypertension was evaluated using an in vivo model as described by Ribeiro et al. (Hypertension 20, 298, 1992). 5 groups of male Wistar rats (235 to 284 g) received a daily intravenous dose of 10 mg/kg of, respectively, NO-ENA, enalapril, NO-TIM, timolol or vehicle for 5 days. Arterial hypertension was induced by administration of N^w -nitro-L-argininemethyl ester (L-NAME) in the drinking water for 6 weeks. L-NAME was dissolved in the drinking water at a concentration of 60 to 70 mg 100 ml^-1 so as to administer a daily amount of about 60 mg kg^-1. One hour after treatment the systemic blood pressure was measured by the tail-cap method (Zats, Lab. Anim. Sci.42, 198, 1990).
# [4] = test system: intraocular pressure; assay: Ocular hypotensive activity, topical application in rabbits; format: in vivo; conditions: topical application of 100 μg
# [5] = test system: bronchoconstriction induced by capsaicin; assay: Effects on capsaicin-induced bronchoconstriction; format: in vivo, female Guinea pigs; conditions: Guinea pigs, 10 mg/kg intraduodenal; capsaicin 1 μg/kg 45 min later; vehicle = 100
# Description: Bronchoconstriction induced by capsaicin in Guinea pigs is an animal model related to the ability of ACE (angiotensin-converting enzyme) inhibitors to cause cough in patients (Subissi et al., J. Cardiovasc. Pharmacol.20/1,139-146, 1992).
# Adopted test conditions were as previously described by Del Soldato et al. (J. Pharmacological Methods 5, 279, 1981). Female Guinea pigs weighing 300 to 400 g were anaesthetised by intraperitoneal injection of sodium 5,5-diethylbarbiturate (200 mg/kg) and maintained under artificial respiration at constant positive pressure. The right jugular vein was incannulated for administering […]. By a median incision of the abdomen, the duodenum was removed and through a small incision the tip of a suitable polyethylene cannula was inserted and fixed. The other end of the cannula was connected to a syringe for intraduodenal administration of NO-ENA (10 mg/kg), enalapril (10 mg/kg) or vehicle. […] Before and after injection of capsaicin, changes in the tidal area were measured by a modified Konzett apparatus connected to a suitable polygraphic amplifier (Hewlett Packard).
# The results were calculated as the ratio of the responses obtained before and after administration of the test compound, expressed as a % of the response obtained with the vehicle alone, shown in Table 4.
# [6] = Plasma/aqueous humor concentration ratio by HPLC (ocular safety); format: in vivo; conditions: rabbits, topical, versus timolol
# Description: Furthermore, for NO-TIM, the ratio between product concentrations in plasma (P) and aqueous humor (AH) versus timolol was determined by an HPLC method.
Compound,ANTIPLATELET ACTIVITY (per-cent inhibition of platelet aggregation versus vehicle control) [1] [%],ANTITHROMBOTIC ACTIVITY (inhibition percentage compared to the control group) [2] [%],MEAN BLOOD PRESSURE [3] [mmHg],duration of intraocular pressure reduction [4],reduction of intraocular pressure [4] [mmHg],reduction of intraocular pressure versus timolol and enalapril [4],BRONCHOCONSTRICTIVE RESPONSE (% of the response obtained with the vehicle alone) [5] [%],"P/AH ratio (plasma/aqueous humor concentration), times lower than that for timolol [6] [times]"
CCOC(=O)C(CCc1ccccc1)NC(C)C(=O)N1CCC[C@H]1C(=O)Oc1cccc(CO[N+](=O)[O-])c1 (stereo partly shown) [NO-ENA],65,53,115 ± 4,more than 6 hours,6,more pronounced and more lasting,72,–
"CC(C)(C)NC[C@H](COc1nsnc1N1CCOCC1)OC(=O)CCCO[N+](=O)[O-].O=C(O)/C=C\C(=O)O [NO-TIM, (R)-(4-nitroxy)butanoate of 1-[(1,1-dimethylethyl)amino]-3-{[4-(4-morpholinyl)-1,2,5-thiadiazol-3-yl]oxy}-2-propyl maleate]",58,44,–,more than 6 hours,7,more pronounced and more lasting,–,5.5
"CCOC(=O)[C@H](CCc1ccccc1)N[C@@H](C)C(=O)N1CCC[C@H]1C(=O)O [ENALAPRIL, reference compound]",15,11,163 ± 5,–,–,–,327,–
"CC(C)(C)NC[C@H](O)COc1nsnc1N1CCOCC1 [TIMOLOL, reference compound]",2,6,–,–,–,–,–,–
